Measured values taken from article PMC7817691 (Nature Communications, 2021).

How the values were obtained:
SARS-CoV-2 PLpro [1] = molecular target: T1, SARS-CoV-2 PLpro (Severe acute respiratory syndrome coronavirus 2, UniProt P0DTD1); format: binding
T1 construct: gene rep

SARS-CoV-2 PLpro [2] = molecular target: T1, SARS-CoV-2 PLpro; format: biochemical

Cc1ccc(N)cc1C(=O)N[C@H](C)c1cccc2ccccc12 [GRL0617]
1H,15N-HSQC NMR competition with 15N-ISG15 (SARS-CoV-2 PLpro [1]): GRL0617 competes with ISG15 for the binding site in PLpro

Nc1nc(=S)c2[nH]cnc2[nH]1 [Tioguanine]
IC50 (SARS-CoV-2 PLpro [2]): 72 ± 12 µM

CC(=O)Nc1ccc(C)c(C(=O)N[C@H](C)c2cccc3ccccc23)c1 [compound 6]
IC50 (SARS-CoV-2 PLpro [2]): 11 ± 3 µM
